Tests used:
rat CB2 receptor (rCB2) = molecular target: T1, rat CB2 receptor (rCB2) (Rattus norvegicus, UniProt Q9QZN9); experiment: cell-based; type: cell-based; settings: intracellular cAMP, CHO-K1 cells, NKH-477 prestimulated; + agonist, − inverse agonist
T1 sequence (Q9QZN9 1-360): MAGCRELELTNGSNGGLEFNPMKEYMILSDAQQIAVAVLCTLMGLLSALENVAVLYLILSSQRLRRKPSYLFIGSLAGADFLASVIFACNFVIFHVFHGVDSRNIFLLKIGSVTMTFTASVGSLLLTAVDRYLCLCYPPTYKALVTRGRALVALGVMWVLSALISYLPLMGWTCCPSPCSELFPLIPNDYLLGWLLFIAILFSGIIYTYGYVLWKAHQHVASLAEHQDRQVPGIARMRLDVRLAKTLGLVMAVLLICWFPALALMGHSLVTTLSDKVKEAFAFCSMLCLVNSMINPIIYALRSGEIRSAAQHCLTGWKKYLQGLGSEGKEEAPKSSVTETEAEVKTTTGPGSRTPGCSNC

[1] = molecular target: human CB2 receptor (hCB2) (Homo sapiens, UniProt P34972); experiment: cell-based; type: cell-based; settings: intracellular cAMP, CHO-K1 cells, NKH-477 prestimulated; + agonist, − inverse agonist
Chain of human CB2 receptor (hCB2) (P34972 whole entry): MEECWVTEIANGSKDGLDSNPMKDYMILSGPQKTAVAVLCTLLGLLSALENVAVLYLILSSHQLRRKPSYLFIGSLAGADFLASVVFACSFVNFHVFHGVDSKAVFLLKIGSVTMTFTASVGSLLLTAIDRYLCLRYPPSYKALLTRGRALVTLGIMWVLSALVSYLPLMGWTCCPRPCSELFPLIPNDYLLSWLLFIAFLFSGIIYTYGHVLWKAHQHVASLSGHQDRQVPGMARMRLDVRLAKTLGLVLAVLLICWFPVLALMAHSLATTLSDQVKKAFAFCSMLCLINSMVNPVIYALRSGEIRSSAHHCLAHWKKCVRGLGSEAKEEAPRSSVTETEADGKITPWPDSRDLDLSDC

Row | SMILES | rCB2 EC50 range (rat CB2 receptor (rCB2)) | hCB2 EC50 range [1]
1 | CC(C)(C)NC(=O)c1ccc2c(c1)N(C(=O)c1ccccc1)CCS2 [Example 9, 4-benzoyl-N-tert-butyl-3,4-dihydro-2H-benzo[b][1,4]thiazine-6-carboxamide] | −D | 
2 | CC(C)(C)NC(=O)c1ccc2c(c1)N(C(=O)c1ccc(Cl)cc1)CCS2 [Example 10, N-tert-butyl-4-(4-chlorobenzoyl)-3,4-dihydro-2H-benzo[b][1,4]thiazine-6-carboxamide] | +D | +D
3 | COc1ccc(C(=O)N2CCSc3ccc(C(=O)NC4CCCC4)cc32)cc1 [Example 11, N-cyclopentyl-4-(4-methoxybenzoyl)-3,4-dihydro-2H-benzo[b] [1,4]thiazine-6-carboxamide] | −D | −E
4 | O=C(NC1CCCC1)c1ccc2c(c1)N(C(=O)c1ccc(Cl)cc1)CCS2 [Example 15, N-cyclopentyl-4-(4-chlorobenzoyl)-3,4-dihydro-2H-benzo[b] [1,4]thiazine-6-carboxamide] | −E | 
5 | COCCCNC(=O)c1ccc2c(c1)N(C(=O)c1ccccc1)CCS2 [Example 16, 4-benzoyl-N-(3-methoxypropyl)-3,4-dihydro-2H-benzo[b][1,4]thiazine-6-carboxamide] | −D | −E
6 | COCCCNC(=O)c1ccc2c(c1)N(C(=O)c1ccc(F)cc1)CCS2 [Example 17] | −E | 
7 | COCCCNC(=O)c1ccc2c(c1)N(C(=O)c1ccc(C)cc1)CCS2 [Example 18, N-(3-methoxypropyl)-4-(4-methylbenzoyl)-3,4-dihydro-2H-benzo[b][1,4]thiazine-6-carboxamide] | −E | −E
8 | COCCCNC(=O)c1ccc2c(c1)N(C(=O)c1ccc(Cl)cc1)CCS2 [Example 19] | −E | −E
9 | COCCCNC(=O)c1ccc2c(c1)N(C(=O)c1ccc(OC)cc1)CCS2 [Example 20] |  | −E
10 | CC(C)NC(=O)c1ccc2c(c1)N(C(=O)c1ccccc1)CCS2 [Example 26, 4-benzoyl-N-isopropyl-3,4-dihydro-2H-benzo[b][1,4]thiazine-6-carboxamide] | −E | 
11 | CC(C)NC(=O)c1ccc2c(c1)N(C(=O)c1ccc(F)cc1)CCS2 [Example 27] | +D | +E
12 | CC(C)NC(=O)c1ccc2c(c1)N(C(=O)c1ccc(Cl)cc1)CCS2 [Example 29] | +D | +D
13 | COc1ccc(C(=O)N2CCSc3ccc(C(=O)NC(C)C)cc32)cc1 [Example 30, N-isopropyl-4-(4-methoxybenzoyl)-3,4-dihydro-2H-benzo[b][1,4]thiazine-6-carboxamide] | −E | −E
14 | CC(=O)N1CCSc2ccc(C(=O)NC(C)(C)C)cc21 [Example 32, 4-acetyl-N-tert-butyl-3,4-dihydro-2H-benzo[b][1,4]thiazine-6-carboxamide] | −E | 
15 | CCC(=O)N1CCSc2ccc(C(=O)NC(C)(C)C)cc21 [Example 33, N-tert-butyl-4-propionyl-3,4-dihydro-2H-benzo[b][1,4]thiazine-6-carboxamide] |  | +D
16 | CC(C)C(=O)N1CCSc2ccc(C(=O)NC(C)(C)C)cc21 [Example 34, N-tert-butyl-4-isobutyryl-3,4-dihydro-2H-benzo[b][1,4]thiazine-6-carboxamide] | +D | +D
17 | CC(=O)N1CCSc2ccc(C(=O)NC3CCCC3)cc21 [Example 35, 4-acetyl-N-cyclopentyl-3,4-dihydro-2H-benzo[b][1,4]thiazine-6-carboxamide] | −E | +E
18 | CCC(=O)N1CCSc2ccc(C(=O)NC3CCCC3)cc21 [Example 36, N-cyclopentyl-4-propionyl-3,4-dihydro-2H-benzo[b][1,4]thiazine-6-carboxamide] | −E | +E
19 | CC(C)C(=O)N1CCSc2ccc(C(=O)NC3CCCC3)cc21 [Example 37, N-cyclopentyl-4-isobutyryl-3,4-dihydro-2H-benzo[b][1,4]thiazine-6-carboxamide] | −E | +E

Row | SMILES | rCB2 EC50 range (rat CB2 receptor (rCB2)) | hCB2 EC50 range [1]
20 | COCCCNC(=O)c1ccc2c(c1)N(C(=O)C(C)C)CCS2 [Example 38, 4-isobutyryl-N-(3-methoxypropyl)-3,4-dihydro-2H-benzo[b][1,4]thiazine-6-carboxamide] | −E | 
21 | CC(C)CNC(=O)c1ccc2c(c1)N(S(=O)(=O)c1ccccc1)CCS2 [Example 41, N-isobutyl-4-(phenylsulfonyl)-3,4-dihydro-2H-benzo-[b][1,4]thiazine-6-carboxamide] | +A | +C
22 | O=C(NC1CCCC1)c1ccc2c(c1)N(S(=O)(=O)c1ccccc1)CCS2 [Example 44, N-cyclopentyl-4-(phenylsulfonyl)-3,4-dihydro-2H-benzo[b][1,4]thiazine-6-carboxamide] | +B | +C
23 | CC(C)(C)NC(=O)c1ccc2c(c1)N(S(=O)(=O)c1ccccc1)CCS2 [Example 46, N-tert-butyl-4-(phenylsulfonyl)-3,4-dihydro-2H-benzo[b][1,4]thiazine-6-carboxamide] | +B | +B
24 | COCCCNC(=O)c1ccc2c(c1)N(S(=O)(=O)c1ccccc1)CCS2 [Example 48, N-(3-methoxypropyl)-4-(phenylsulfonyl)-3,4-dihydro-2H-benzo[b][1,4]thiazine-6-carboxamide] | +B | +D
25 | CC(C)NC(=O)c1ccc2c(c1)N(S(=O)(=O)c1ccccc1)CCS2 [Example 52, N-isopropyl-4-(phenylsulfonyl)-3,4-dihydro-2H-benzo[b][1,4]thiazine-6-carboxamide] | +A | +C
26 | CC(C)(C)NC(=O)c1ccc2c(c1)N(S(C)(=O)=O)CCS2 [Example 53, N-tert-butyl-4-(methylsulfonyl)-3,4-dihydro-2H-benzo[b][1,4]thiazine-6-carboxamide] | +D | +E
27 | CC(C)CNC(=O)c1ccc2c(c1)N(S(C)(=O)=O)CCS2 [Example 54, N-isobutyl-4-(methylsulfonyl)-3,4-dihydro-2H-benzo[b][1,4]thiazine-6-carboxamide] | +D | +E
28 | CS(=O)(=O)N1CCSc2ccc(C(=O)NC3CCCC3)cc21 [Example 55, N-cyclopentyl-4-(methylsulfonyl)-3,4-dihydro-2H-benzo[b][1,4]thiazine-6-carboxamide] | +D | +E
29 | COCCCNC(=O)c1ccc2c(c1)N(S(C)(=O)=O)CCS2 [Example 56, N-(3-methoxypropyl)-4-(methylsulfonyl)-3,4-dihydro-2H-benzo[b][1,4]thiazine-6-carboxamide] | +E | 
30 | CC(C)NC(=O)c1ccc2c(c1)N(S(C)(=O)=O)CCS2 [Example 57, N-isopropyl-4-(methylsulfonyl)-3,4-dihydro-2H-benzo[b][1,4]thiazine-6-carboxamide] | +D | +E
31 | CC(C)CNC(=O)c1ccc2c(c1)N(S(=O)(=O)c1ccccc1)CCO2 [Example 59, N-isobutyl-4-(phenylsulfonyl)-3,4-dihydro-2H-benzo [b][1,4]oxazine-6-carboxamide] | +C | +C
32 | CCN(CC)C(=O)c1ccc2c(c1)N(S(=O)(=O)c1ccccc1)CCS2 [Example 65, N,N-diethyl-4-(phenylsulfonyl)-3,4-dihydro-2H-benzo[b][1,4]thiazine-6-carboxamide] | +C | +C
33 | O=C(c1ccc2c(c1)N(S(=O)(=O)c1ccccc1)CCS2)N1CCCC1 [Example 66, (4-(phenylsulfonyl)-3,4-dihydro-2H-benzo[b][1,4]thiazin-6-yl)(pyrrolidin-1-yl)methanone] | +D | +D
34 | O=C(c1ccc2c(c1)N(S(=O)(=O)c1ccccc1)CCS2)N1CCCCC1 [Example 67, (4-(phenylsulfonyl)-3,4-dihydro-2H-benzo[b][1,4]thiazin-6-yl)(piperidin-1-yl)methanone] | +C | +D
35 | O=C(c1ccc2c(c1)N(S(=O)(=O)c1ccccc1)CCS2)N1CCOCC1 [Example 68] | +D | +D
36 | O=C(c1ccc2c(c1)N(S(=O)(=O)c1ccc(C(F)(F)F)cc1)CCS2)N1CCCCC1 [Example 75, piperidin-1-yl(4-(4-(trifluoromethyl)phenylsulfonyl)-3,4-dihydro-2H-benzo[b][1,4]thiazin-6-yl)methanone] | −C | 
37 | O=S(=O)(c1ccc(C(F)(F)F)cc1)N1CCSc2ccc(-c3nc(-c4cccc(C(F)(F)F)c4)no3)cc21 [Example 80, 3-(3-(trifluoromethyl)phenyl)-5-(4-(4-(trifluoromethyl)phenylsulfonyl)-3,4-dihydro-2H-benzo[b][1,4]thiazin-6-yl)-1,2,4-oxadiazole] |  | +D
38 | CC1(C)CCN(S(=O)(=O)c2ccc(F)cc2)c2cc(C(=O)N3CCCC3)ccc2S1 [Example 102, (5-(4-fluorophenyl-sulfonyl)-2,2-dimethyl-2,3,4,5-tetrahydro-benzo[b][1,4]thiazepin-7-yl)(pyrrolidin-1-yl)-methanone] | +C | 
